Results on 27 molecules are retold here after US6784184B2, “5-(arylsulfonyl)-,5-(arylsulfinyl), and 5-(arylsulfanyl)-thiazolidine-2,4-diones useful for inhibition of farnesyl-protein transferase” (Wyeth Holdings Corporation, priority 2001, dated 2004).

Usually pIC50 stands for the IC50 on a negative log10 scale, so that one unit is a factor of ten. Read a high pIC50 as a low IC50.

One assay deals with FPTase (H-Ras substrate) (UniProt P29702+P49355). As to the kind of experiment: in vitro FTase Inhibition Assay, H-Ras as substrate for farnesylation. In kind it is biochemical. The note with it: H-Ras used as substrate for farnesylation. Here is the method:
(§1) The ability of the compounds of this invention to inhibit FPTase was evaluated in the standard pharmacological in vitro test procedures described below.
(§2) Methods—1. […] 2. Solution #1 is added to FPTase reaction in a volume of […]. 3. Standard reaction mix, […], contains 50 mM Tris (7.5), […], 3 mM MgCl2, 20 mM KCl, 5 mM DTT, 0.2% octyl-B-glucoside, 1% DMSO, […], 10 ng FPTase, and various concentrations of FPTase inhibitors. 4. Incubate for 30-90 min at […] 5. Stop reactions with TCA/SDS (6%/2%), hold at 4° C. for 45-60 min. 6. Filter by manifold or 96 well plate, wash filter 3-5× with TCA (6%). 7. Add scintillant to filters, measure ^3H-FPP incorporation into Ras protein.
(§3) (cpm from precipitated Ras with test compounds)−(background cpm)×100=% inhibition.
(§4) (cpm from precipitated Ras without test compounds)−(background cpm)

The target in the next assay is FPTase (K-Ras substrate) (UniProt P29702+P49355). Nature of the assay: in vitro FTase Inhibition Assay, K-Ras as substrate for farnesylation. Conditions: K-Ras used as substrate for farnesylation. Format: biochemical. As for the experimental part:
as §1, §2, §3, §4

pIC50: −log10 of the molar value. A value given as a limit tells only on which side of the number the result lay.

For the molecule `COc1ccc(S(=O)(=O)C2(CCCC#Cc3ccc(C(F)(F)F)cc3)SC(=O)NC2=O)cc1` (stereo not drawn) [Example 153, 5-(4-Methoxybenzenesulfonyl)-5-[5-(4-trifluoromethylphenyl)pent-4-ynyl]-thiazolidine-2,4-dione], the results for the pIC50 at FPTase (H-Ras substrate) and against FPTase (K-Ras substrate) were 6.70 to 6.77 and 5.21 to 6.00, respectively.
Take `O=C1NC(=O)C(CCCC#Cc2ccc(Cl)cc2)(S(=O)(=O)c2cccc3ccccc23)S1` (stereo not drawn) [Example 113, 5-[5-(4-Chlorophenyl)pent-4-ynyl]-5-(naphthalene-1-sulfonyl)-thiazolidine-2,4-dione]: the pIC50 on FPTase (H-Ras substrate) was 7.22 to 7.30; on FPTase (K-Ras substrate) it was 6.10 to 6.12.
For `COc1ccc(S(=O)(=O)C2(CCCC#Cc3ccc(Cl)cc3)SC(=O)NC2=O)cc1` (stereo not drawn) [Example 97, 5-[5-(4-Chlorophenyl)pent-4-ynyl]-5-(4-methoxyphenylsulfonyl)-thiazolidine-2,4-dione], the negative-log IC50 (pIC50) on FPTase (H-Ras substrate) was 6.82 to 7.12; against FPTase (K-Ras substrate) it was 5.26 to 5.46.
The like results for `COc1ccc(S(=O)(=O)C2(CCCC#Cc3cc(Cl)ccc3C)SC(=O)NC2=O)cc1` (stereo not drawn) [Example 138, 5-[5-(5-Chloro-2-methylphenyl)pent-4-ynyl]-5-(4-methoxybenzene-sulfonyl)thiazolidine-2,4-dione] were, in that order, 7.49 to 7.64 and 6.38 to 6.52.
Regarding `COc1ccc(S(=O)(=O)C2(CCCC#Cc3cc(NC(=O)OC(C)(C)C)ccc3C)SC(=O)NC2=O)cc1` (single isomer, unassigned; more polar) [Example 223, Enantiomer of(3-{5-[5-(4-Methoxybenzenesulfonyl)-2,4-dioxothiazolidin-5-yl]pent-1-ynyl}-4-methylphenyl)carbamic Acid tert-Butyl Ester (more polar)], the negative logarithm of the IC50 (pIC50) is 7.20 against FPTase (H-Ras substrate) and below 6.00 against FPTase (K-Ras substrate).
On to `O=C1NC(=O)C(CCCC#Cc2cccc([N+](=O)[O-])c2)(S(=O)(=O)c2ccc(Oc3ccccc3)cc2)S1` (stereo not drawn) [Example 119, 5-[5-(3-Nitrophenyl)pent-4-ynyl]-5-(4-phenoxybenzenesulfonyl)-thiazolidine-2,4-dione], for which the negative logarithm of the IC50 (pIC50) against FPTase (H-Ras substrate) is 6.85 to 6.89; at FPTase (K-Ras substrate), 5.77 to 5.89.
For the molecule `O=C1NC(=O)C(CCCC#Cc2ccc(Cl)cc2)(S(=O)(=O)c2ccc(F)cc2)S1` (stereo not drawn) [Example 105, 5-[5-(4-Chlorophenyl)pent-4-ynyl]-5-(4-fluorobenzenesulfonyl)-thiazolidine-2,4-dione], the pIC50 was 6.82 to 7.30 on FPTase (H-Ras substrate) and 5.77 to 5.82 at FPTase (K-Ras substrate).
The matching figures for `CC(=O)Nc1ccc(S(=O)(=O)C2(CCCC#Cc3ccc(Cl)cc3)SC(=O)NC2=O)cc1` (stereo not drawn) [Example 108, N-(4-{5-[5-(4-Chlorophenyl)pent-4-ynyl]-2,4-dioxothiazolidine-5-sulfonyl}phenyl)acetamide]: 6.74 to 6.89 and at most 5.05.
In the case of `Cc1ccc([N+](=O)[O-])cc1C#CCCCC1(S(=O)(=O)c2ccc3ccccc3c2)SC(=O)NC1=O` (stereo not drawn) [Example 127, 5-[5-(2-Methyl-5-nitrophenyl)pent-4-ynyl]-5-(naphthalene-2-sulfonyl)-thiazolidine-2,4-dione], the pIC50 is 6.85 to 6.92 against FPTase (H-Ras substrate) and 5.82 to 5.89 against FPTase (K-Ras substrate).
Consider `Cc1ccc([N+](=O)[O-])cc1C#CCCCC1(S(=O)(=O)c2ccc(I)cc2)SC(=O)NC1=O` (stereo not drawn) [Example 125, 5-(4-Iodobenzenesulfonyl)-5-[5-(2-methyl-5-nitrophenyl)pent-4-ynyl]-thiazolidine-2,4-dione], for which the pIC50 against FPTase (H-Ras substrate) is 7.52; on FPTase (K-Ras substrate), 6.40.
`COc1ccc(S(=O)(=O)C2(CCCC#Cc3cc(C(=O)NC(C)(C)C)ccc3C)SC(=O)NC2=O)cc1` (stereo not drawn) [Example 152, N-tert-Butyl-3-{5-[5-(4-methoxy-benzenesulfonyl)-2,4-dioxothiazol-idin-5-yl]pent-1-ynyl}-4-methyl-benzamide]: the pIC50 at FPTase (H-Ras substrate) was 7.80 to 7.96; at FPTase (K-Ras substrate), 6.64 to 7.00.
Turning to `COc1ccc(S(=O)(=O)C2(CCCC#Cc3cc([N+](=O)[O-])ccc3OC)SC(=O)NC2=O)cc1` (stereo not drawn) [Example 123, 5-(4-Methoxybenzenesulfonyl)-5-[5-(2-methoxy-5-nitrophenyl)pent-4-ynyl]-thiazolidine-2,4-dione], the negative-log IC50 (pIC50) against FPTase (H-Ras substrate) was 7.09 to 7.10; against FPTase (K-Ras substrate), 5.55 to 6.00.
With “5-[5-(4-Chloro-2-methylphenyl)pent-4-ynyl]-5-(4-trifluoromethoxy-benzenesulfonyl)thiazolidine-2,4-dione [Example 140]”, the pIC50 was 6.52 to 6.82 against FPTase (H-Ras substrate) and 5.44 to 6.00 against FPTase (K-Ras substrate).
Regarding `COC(=O)Nc1ccc(C)c(C#CCCCC2(S(=O)(=O)c3ccc(OC)cc3)SC(=O)N(C(=O)OC)C2=O)c1` (stereo not drawn) [Example 228, Methyl 5-(5-{5-[(methoxycarbonyl)amino]-2-methylphenyl}pent-4-ynyl)-5-[(4-methoxyphenyl)sulfonyl]-2,4-dioxo-1,3-thiazolidine-3-carboxylate], the pIC50 against FPTase (H-Ras substrate) is 7.15 to 8.40; against FPTase (K-Ras substrate), 6.00 to 6.64.
For `COc1ccc(S(=O)(=O)C2(CCCC#Cc3cc(NC(=O)OCC(C)C)ccc3C)SC(=O)NC2=O)cc1` (stereo not drawn) [Example 182, (3-{5-[5-(4-Methoxybenzenesulfonyl)-2,4-dioxothiazolidin-5-yl]pent-1-ynyl}-4-methylphenyl)carbamic Acid Isobutyl], the negative logarithm of the IC50 (pIC50) against FPTase (H-Ras substrate) is 8.00 to 8.30; against FPTase (K-Ras substrate) it was 7.25 to 7.49.
In the case of “5-[5-(2-Methyl-4-nitrophenyl)pent-4-ynyl]-5-[4-(pyridin-4-yloxy)-benzenesulfonyl]-thiazolidine-2,4-dione [Example 128]”, the negative logarithm of the IC50 (pIC50) against FPTase (H-Ras substrate) was 7.49 to 9.00; at FPTase (K-Ras substrate), 6.66 to 7.70.
Regarding `COc1ccc(S(=O)(=O)C2(CCCC#Cc3cc(NC(=O)OC(C)C)ccc3C)SC(=O)NC2=O)cc1` (stereo not drawn) [Example 179, (3-{5-[5-(4-Methoxybenzenesulfonyl)-2,4-dioxothiazolidin-5-yl]pent-1-ynyl}-4-methylphenyl)carbamic Acid Isopropyl Ester], the pIC50 is 7.49 to 8.70 on FPTase (H-Ras substrate) and 7.15 to 8.30 against FPTase (K-Ras substrate).
The matching figures for `Cc1ccc(S(=O)(=O)C2(CCC/C=C\c3ccc(Cl)cc3)SC(=O)NC2=O)cc1` (stereo not drawn) [Example 217, 5-[(4Z)-5-(4-Chloro-phenyl)pent-4-enyl]-5-(toluene-4-sulfonyl)-thiazolidine-2,4-dione]: 7.00 and 5.07.
As for `CCCCOC(=O)Nc1ccc(C)c(C#CCCCC2(S(=O)(=O)c3ccc(OC)cc3)SC(=O)NC2=O)c1` (stereo not drawn) [Example 181, (3-{5-[5-(4-Methoxybenzenesulfonyl)-2,4-dioxothiazolidin-5-yl]pent-1-ynyl}-4-methylphenyl)carbamic Acid Butyl Ester], the negative logarithm of the IC50 (pIC50) against FPTase (H-Ras substrate) was 7.49 to 8.00; at FPTase (K-Ras substrate) it was 6.89 to 7.00.
In the case of `COc1ccc(S(=O)(=O)C2(CCCC#Cc3cc(NC(=O)OCc4ccc([N+](=O)[O-])cc4)ccc3C)SC(=O)NC2=O)cc1` (stereo not drawn) [Example 176, (3-{5-[5-(4-Methoxybenzenesulfonyl)-2,4-dioxothiazolidin-5-yl]pent-1-ynyl}-4-methylphenyl)carbamic Acid 4-Nitro-Benzyl Ester], the pIC50 against FPTase (H-Ras substrate) was 7.49 to 8.49; on FPTase (K-Ras substrate), 6.49 to 7.52.
On to `Cc1ccc(S(=O)(=O)C2(CCCC#Cc3ccc(Cl)cc3)SC(=O)NC2=O)cc1` (stereo not drawn) [Example 103, 5-[5-(4-Chlorophenyl)pent-4-ynyl]-5-(p-tolylsulfonyl)-thiazolidine-2,4-dione], for which the pIC50 was 7.30 to 7.52 at FPTase (H-Ras substrate) and 5.00 to 6.05 against FPTase (K-Ras substrate).
As for “5-[5-(4-Chloro-2-methylphenyl)-pent-4-ynyl]-5-(4-iodobenzene-sulfonyl)-thiazolidine-2,4-dione [Example 141]”, the figures for the negative logarithm of the IC50 (pIC50) at FPTase (H-Ras substrate) and at FPTase (K-Ras substrate) were 7.49 to 7.68 and 6.47 to 6.52, respectively.
The matching figures for `COc1ccc(S(=O)(=O)C2(CCCC#Cc3cc(C)ccc3C)SC(=O)NC2=O)cc1` (stereo not drawn) [Example 135, 5-[5-(2,5-Dimethylphenyl)pent-4-ynyl]-5-(4-methoxybenzenesulfonyl)-thiazolidine-2,4-dione]: 7.49 to 7.70 and 5.68 to 5.72.
As to `COC(=O)c1ccc(C)c(C#CCCCC2(S(=O)(=O)c3ccc(OC)cc3)SC(=O)NC2=O)c1` (stereo not drawn) [Example 155, 3-{5-[5-(4-Methoxybenzenesulfonyl)-2,4-dioxo-thiazolidin-5-yl]-pent-1-ynyl}-4-methylbenzoic Acid Methyl Ester], the pIC50 at FPTase (H-Ras substrate) was 6.49 to 8.00; on FPTase (K-Ras substrate), 6.36 to 6.38.
The like results for `O=C1NC(=O)C(CCCC#Cc2ccc(Cl)cc2)(S(=O)(=O)c2ccc(Oc3ccccc3)cc2)S1` (stereo not drawn) [Example 106, 5-[5-(4-Chlorophenyl)pent-4-ynyl]-5-(4-phenoxybenzenesulfonyl)-thiazolidine-2,4-dione] were, in that order, 6.60 to 6.64 and 5.77 to 5.89.
With `COc1ccc(S(=O)(=O)C2(CCCC#Cc3cc(NC(=O)OCc4ccccc4)ccc3C)SC(=O)NC2=O)cc1` (stereo not drawn) [Example 175, (3-{5-[5-(4-Methoxybenzenesulfonyl)-2,4-dioxothiazolidin-5-yl]pent-1-ynyl}-4-methylphenyl)carbamic Acid Benzyl Ester], the pIC50 against FPTase (H-Ras substrate) is 7.49 to 8.00; on FPTase (K-Ras substrate), 6.28 to 7.28.
As to `O=C1NC(=O)C(CCCC#Cc2ccc(Cl)cc2)(S(=O)(=O)c2cccc3cccnc23)S1` (stereo not drawn) [Example 109, 5-[5-(4-Chlorophenyl)pent-4-ynyl]-5-(quinoline-8-sulfonyl)-thiazolidine-2,4-dione], the pIC50 on FPTase (H-Ras substrate) was 6.89 to 7.19; on FPTase (K-Ras substrate), 5.68 to 5.85.
